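In this assay, cells in 96-well plates receive the compound at five concentrations for 48 hours. Endpoints are linearly interpolated between the surrounding concentrations. GI50 marks 50% less growth.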 The source made the active and inactive calls. Rule as the data show it: active = GI50 up to about 1.1 µM and inactive = higher.
What was measured:
Assay in all cases: NCI tumour cell line growth inhibition, 48 h
[1] = tested on: 786-0
[2] = tested on: A498
[3] = tested on: ACHN
[4] = tested on: BT-549
[5] = tested on: CCRF-CEM
[6] = tested on: DU-145
[7] = tested on: LOX IMVI
[8] = tested on: MOLT-4
[9] = tested on: OVCAR-4
[10] = tested on: OVCAR-5
[11] = tested on: RPMI-8226
[12] = tested on: RXF 393
[13] = tested on: SK-MEL-28
[14] = tested on: SK-MEL-2
[15] = tested on: TK-10
[16] = tested on: U-251
[17] = tested on: UACC-62
[18] = tested on: UO-31
[19] = tested on: OVCAR-3
[20] = tested on: SNB-75

| SMILES | GI50 [1] | GI50 [2] | GI50 [3] | GI50 [4] | GI50 [5] | GI50 [6] | GI50 [7] | GI50 [8] | GI50 [9] | GI50 [10] | GI50 [11] | GI50 [12] | GI50 [13] | GI50 [14] | GI50 [15] | GI50 [16] | GI50 [17] | GI50 [18] | GI50 [19] | GI50 [20] |
| --- | --- | --- | --- | --- | --- | --- | --- | --- | --- | --- | --- | --- | --- | --- | --- | --- | --- | --- | --- | --- |
| C/C(=N\n1c(Cc2ccccc2)n[nH]c1=O)c1ccccc1 | > 100 µM (inactive) | > 100 µM (inactive) | > 100 µM (inactive) | > 100 µM (inactive) | > 100 µM (inactive) | > 100 µM (inactive) | > 100 µM (inactive) | > 100 µM (inactive) | > 100 µM (inactive) | > 100 µM (inactive) | > 100 µM (inactive) | > 100 µM (inactive) | > 100 µM (inactive) | > 100 µM (inactive) | > 100 µM (inactive) | > 100 µM (inactive) | > 100 µM (inactive) | > 100 µM (inactive) | – | – |
| O=[N+]([O-])c1ccc(N/N=C2/CC3=C2CCCCCCCCCC3)c([N+](=O)[O-])c1 | 80.9 µM (inactive) | 88.9 µM (inactive) | > 100 µM (inactive) | > 100 µM (inactive) | > 100 µM (inactive) | > 100 µM (inactive) | – | > 100 µM (inactive) | > 100 µM (inactive) | > 100 µM (inactive) | > 100 µM (inactive) | > 100 µM (inactive) | > 100 µM (inactive) | > 100 µM (inactive) | 94.4 µM (inactive) | > 100 µM (inactive) | > 100 µM (inactive) | > 100 µM (inactive) | > 100 µM (inactive) | 44.4 µM (inactive) |
| C/C(=N\Nc1ccccc1Br)c1cccc(/C(C)=N/Nc2ccccc2Br)n1 | 84.5 µM (inactive) | 45.9 µM (inactive) | > 100 µM (inactive) | > 100 µM (inactive) | > 100 µM (inactive) | > 100 µM (inactive) | > 100 µM (inactive) | > 100 µM (inactive) | > 100 µM (inactive) | > 100 µM (inactive) | > 100 µM (inactive) | 19.7 µM (inactive) | > 100 µM (inactive) | 39 µM (inactive) | 69.7 µM (inactive) | > 100 µM (inactive) | – | > 100 µM (inactive) | 68.1 µM (inactive) | 13 µM (inactive) |
| C=CCN1C(=O)CC1N(CC=C)S(=O)(=O)c1ccc(C)cc1 (stereo not drawn) | > 100 µM (inactive) | > 100 µM (inactive) | > 100 µM (inactive) | > 100 µM (inactive) | > 100 µM (inactive) | > 100 µM (inactive) | > 100 µM (inactive) | > 100 µM (inactive) | > 100 µM (inactive) | > 100 µM (inactive) | > 100 µM (inactive) | > 100 µM (inactive) | > 100 µM (inactive) | – | > 100 µM (inactive) | > 100 µM (inactive) | > 100 µM (inactive) | > 100 µM (inactive) | > 100 µM (inactive) | – |
| Nc1c2c(nc3cc(F)c(F)cc13)CCC2 | 45.6 µM (inactive) | 24.7 µM (inactive) | 32.6 µM (inactive) | > 100 µM (inactive) | – | 52.6 µM (inactive) | 36.6 µM (inactive) | 30.5 µM (inactive) | 58.2 µM (inactive) | 49.9 µM (inactive) | 43.9 µM (inactive) | 33.5 µM (inactive) | 52.7 µM (inactive) | > 100 µM (inactive) | 26.4 µM (inactive) | 56.6 µM (inactive) | 82.4 µM (inactive) | 4.05 µM (inactive) | > 100 µM (inactive) | 42.5 µM (inactive) |
| CC1(C)CCC2=C(O1)c1ccccc1C(=O)C2=O [LAPACHONE] | 1.2 µM (inactive) | 5.42 µM (inactive) | – | 0.721 µM (active) | 0.908 µM (active) | 0.64 µM (active) | – | 0.708 µM (active) | 0.684 µM (active) | 0.571 µM (active) | 0.284 µM (active) | 1.41 µM (inactive) | – | 1.42 µM (inactive) | 2.24 µM (inactive) | 0.337 µM (active) | 0.475 µM (active) | – | 0.234 µM (active) | 0.358 µM (active) |
| C[C@]12CCC3c4ccc(O)cc4CC[C@H]3C1CC(=O)NC2=O (stereo partly drawn) | > 10 µM (inactive) | > 10 µM (inactive) | > 10 µM (inactive) | > 10 µM (inactive) | > 10 µM (inactive) | > 10 µM (inactive) | > 10 µM (inactive) | > 10 µM (inactive) | > 10 µM (inactive) | > 10 µM (inactive) | > 10 µM (inactive) | > 10 µM (inactive) | > 10 µM (inactive) | > 10 µM (inactive) | > 10 µM (inactive) | > 10 µM (inactive) | – | > 10 µM (inactive) | > 10 µM (inactive) | – |
| C=C(Cl)/C(=C\Br)CCC(Cl)C(C)C.C=C(Cl)/C(=C\Cl)CCC(Cl)C(C)C (stereo not drawn) | 15.3 µM (inactive) | 20.3 µM (inactive) | 16.8 µM (inactive) | 15.2 µM (inactive) | 5.62 µM (inactive) | 18 µM (inactive) | 1.67 µM (inactive) | 6.52 µM (inactive) | 16.3 µM (inactive) | 20.5 µM (inactive) | – | 11.3 µM (inactive) | 17.2 µM (inactive) | 13.6 µM (inactive) | 19.8 µM (inactive) | 16.4 µM (inactive) | 12.7 µM (inactive) | 18.2 µM (inactive) | 16.5 µM (inactive) | 18 µM (inactive) |
| C=C1c2nc3ccccc3n2C=C(c2ccccc2)N1c1ccccc1 | > 100 µM (inactive) | 65.3 µM (inactive) | 49.4 µM (inactive) | 24.5 µM (inactive) | 53.3 µM (inactive) | > 100 µM (inactive) | 42.2 µM (inactive) | 21.4 µM (inactive) | 16.4 µM (inactive) | > 100 µM (inactive) | 17.3 µM (inactive) | 22.4 µM (inactive) | – | 73.5 µM (inactive) | 49 µM (inactive) | 58.6 µM (inactive) | 43.1 µM (inactive) | 25.7 µM (inactive) | > 100 µM (inactive) | > 100 µM (inactive) |
| O=[N+]([O-])c1ccc(Sc2c3ccccc3nc3ccccc23)cn1 | 2.59 µM (inactive) | > 100 µM (inactive) | 12.2 µM (inactive) | 14.6 µM (inactive) | 2.39 µM (inactive) | 13.5 µM (inactive) | 13 µM (inactive) | 2.19 µM (inactive) | 21.2 µM (inactive) | > 62.4 µM (inactive) | – | 31.8 µM (inactive) | 24.7 µM (inactive) | 25.4 µM (inactive) | 10.1 µM (inactive) | > 44.2 µM (inactive) | 18.7 µM (inactive) | 15.3 µM (inactive) | 8.11 µM (inactive) | 24.9 µM (inactive) |
| CCCCOC(C)(C)/C=C/C(O)[C@](C)(O)[C@H]1[C@H](O)C[C@@]2(C)[C@@H]3CCc4c(cc(OC5OC(CO)C(O)C(O)C5O)c(O)c4C)C3(C)C(=O)C[C@]12C (stereo partly drawn) | > 100 µM (inactive) | > 100 µM (inactive) | > 100 µM (inactive) | > 100 µM (inactive) | > 100 µM (inactive) | > 100 µM (inactive) | > 100 µM (inactive) | > 100 µM (inactive) | > 100 µM (inactive) | > 100 µM (inactive) | – | > 100 µM (inactive) | > 100 µM (inactive) | > 100 µM (inactive) | > 100 µM (inactive) | > 100 µM (inactive) | > 100 µM (inactive) | > 100 µM (inactive) | > 100 µM (inactive) | > 100 µM (inactive) |
| COc1ccc(CCc2ccc3c(c2)OCO3)cc1 | > 100 µM (inactive) | > 100 µM (inactive) | > 100 µM (inactive) | 62.5 µM (inactive) | 35.9 µM (inactive) | 43 µM (inactive) | 73.6 µM (inactive) | 34.7 µM (inactive) | 68.7 µM (inactive) | > 100 µM (inactive) | 36.6 µM (inactive) | 21.9 µM (inactive) | > 100 µM (inactive) | 31.5 µM (inactive) | > 100 µM (inactive) | 33.7 µM (inactive) | > 100 µM (inactive) | – | 31.6 µM (inactive) | > 100 µM (inactive) |
| O=C(O)Cc1ccc(Nc2nc3ccccc3nc2C(=O)O)cc1 | > 100 µM (inactive) | > 100 µM (inactive) | > 100 µM (inactive) | > 100 µM (inactive) | > 100 µM (inactive) | > 100 µM (inactive) | > 100 µM (inactive) | > 100 µM (inactive) | > 100 µM (inactive) | > 100 µM (inactive) | – | > 100 µM (inactive) | > 100 µM (inactive) | > 100 µM (inactive) | > 100 µM (inactive) | > 100 µM (inactive) | > 100 µM (inactive) | > 100 µM (inactive) | > 100 µM (inactive) | > 100 µM (inactive) |
| Oc1nc(-c2ccc3ccccc3c2)nc2ccccc12 | 6.89 µM (inactive) | 32.9 µM (inactive) | 13.9 µM (inactive) | > 100 µM (inactive) | – | > 100 µM (inactive) | > 100 µM (inactive) | > 100 µM (inactive) | 3.81 µM (inactive) | 35.2 µM (inactive) | > 100 µM (inactive) | 25.4 µM (inactive) | > 100 µM (inactive) | 91.8 µM (inactive) | 0.771 µM (active) | 25.5 µM (inactive) | > 100 µM (inactive) | 23.4 µM (inactive) | 35.4 µM (inactive) | 4.53 µM (inactive) |
| O=C(/C=C/c1ccccc1)NNC(=O)c1c(Cl)c(Cl)c(Cl)c(Cl)c1-c1nc2ccccc2[nH]1 | 4.5 µM (inactive) | 29.6 µM (inactive) | 32.5 µM (inactive) | 28.2 µM (inactive) | 27 µM (inactive) | 28.6 µM (inactive) | 27.1 µM (inactive) | 32.4 µM (inactive) | 49.4 µM (inactive) | 25 µM (inactive) | 26.9 µM (inactive) | 18.8 µM (inactive) | 39.5 µM (inactive) | 39.4 µM (inactive) | – | – | 15.7 µM (inactive) | 19.5 µM (inactive) | 28.4 µM (inactive) | 18.2 µM (inactive) |

Reference: ChEMBL document CHEMBL1201862, “PubChem BioAssay data set” (2004)
